# Key:
# TRβ = biological target: T1, TRβ (Homo sapiens, UniProt P10828); assay: In vitro binding activity, LanthaScreen TR-FRET Thyroid Receptor beta Coactivator Assay; conditions: TRβ-LBD
# T1 construct: Then 5 μL of 4×TRα-LBD or TRP-LBD; purchased Invitrogen PV4686
# T1 sequence (P10828 217-461 limits assumed): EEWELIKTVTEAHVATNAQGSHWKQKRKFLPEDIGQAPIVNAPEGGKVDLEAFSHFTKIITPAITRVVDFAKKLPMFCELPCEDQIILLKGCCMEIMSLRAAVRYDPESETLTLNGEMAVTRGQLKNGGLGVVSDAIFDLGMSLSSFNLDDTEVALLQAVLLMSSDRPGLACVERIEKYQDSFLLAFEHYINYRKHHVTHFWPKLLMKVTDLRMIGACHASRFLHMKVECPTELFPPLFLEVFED
# Experimental: (§1) 2. Detection of TRα or TRβ Binding Activity In Vitro of the Compound of the Present Invention
# (§2) • LanthaScreen TR-FRET Thyroid Receptor beta Coactivator Assay kit was purchased from Invitrogen, Cat. No. PV4686; • LanthaScreen TR-FRET Thyroid Receptor alfa Coactivator Assay kit was purchased from Invitrogen, Cat. No. PV4687. Test Method:
# (§3) This method was tested using LanthaScreen TR-FRET Thyroid Receptor beta/alfa Coactivator Assay kit. The test compound was dissolved in DMSO and diluted three-fold to obtain a total of 10 concentrations, then the compounds were diluted into solutions containing 2% DMSO with TR-FRET Coregulator Buffer C in the kit. 10 μL of the compounds containing 2% DMSO were taken to a 384-well plate. Then 5 μL of 4×TRα-LBD or TRP-LBD and 5 μL of a mixture containing 0.4 μM fluorescein-SRC2-2 and 8 nM Tb anti-GST antibody were added to each well. After mixing well, the compounds were incubated at room temperature in the dark for 1 h. After 1 h, the fluorescence value (RFU) was read at 520 nm and 495 nm using PHERAstar FSX microplate reader from BMG LABTECH. The emission signal at 520 nm was divided by the emission signal at 495 nm to calculate the TR-FRET ratio.
# [1] = Pharmacokinetic determination in SD rats (plasma, LC/MS/MS); assay type: in vivo; conditions: SD rat; for pharmacokinetic properties (in words): intravenous injection or oral gavage, compared to control MGL3196; for AUC(0-t) / Cmax / Tmax / half-life: male, plasma
# Excerpt: Test purpose: The following method is used to determine the pharmacokinetics of the compounds of the present invention.
# Experimental reagents and test compounds: Propranolol (internal standard), methanol, ammonium acetate, K2EDTA (potassium ethylenediamine tetraacetate), formic acid, acetonitrile, MTBE (methyl tert-butyl ether), KolliphorHS15 (polyethylene glycol 12 hydroxystearate), DMSO (dimethyl sulfoxide) are commercially available; • SD rat: male, 180-220 g, 7-8 weeks old, purchased from Hunan Slake Experimental Animal Co., Ltd. Test Method: 1. Preparation of Test Compounds
# Each test compound prepared was completely dissolved in a mixture of 5% DMSO+5% KolliphorHS 15+90% Saline according solubility property thereof.
# (1) Preparation of the test compound stock solution: an appropriate amount of test compound was precisely weighed, dissolved in DMSO, diluted to 1 mg/mL with acetonitrile, and shaken well to obtain the test compound stock solution, which was stored at −20° C. for use.
# (2) Preparation of internal standard solution: a certain amount of 1 mg/mL Propranolol stock solution was precisely drawn and diluted to 100 ng/mL with water.
# The liquid-liquid extraction method was used to process the samples for chromatographic separation. On a triple quadrupole tandem mass spectrometer, quantitative analysis was performed using multiple reactive ion monitoring (MRM), and the concentration were calculated using instrument quantitative software.
# 30 μL of plasma sample was accurately drawn, and added with 250 μL of internal standard. The mixture was mixed well by vortexing. The mixture was extracted once with 1 mL of MTBE, centrifuged at 13,000 rpm, 4° C. for 2 min, then 800 μL of supernatant was sucked, and evaporated in a 96-well nitrogen blower. The residue was re-dissolved with 150 μL of methanol/water (v/v=50/50), mixed by vortexing, and injected. The injection volume was 8 μL.
# An appropriate amount of compound stock solution was accurately drawn, and diluted with acetonitrile to obtain standard series solution. 20 μL of each of the above standard series solutions was accurately drawn, added with 180 μL of blank plasma, and mixed well by vortexing to prepare plasma samples equivalent to plasma concentrations of 3, 5, 10, 30, 100, 300, 1,000, 3,000, 5,000, and 10,000 ng/mL, which were all processed according to “pretreatment of plasma samples”. Two samples were analyzed for each concentration to establish a standard curve.
# The content of the test compound in the plasma of rats after administration of different compounds was determined by LC/MS/MS method.
# Pharmacokinetic parameters were calculated using a noncompartmental method by WinNonLin 6.1 software.
# TRα = biological target: T2, TRα (Homo sapiens, UniProt P10827); assay: In vitro binding activity, LanthaScreen TR-FRET Thyroid Receptor alfa Coactivator Assay; conditions: TRα-LBD
# T2 construct: Then 5 μL of 4×TRα-LBD or TRP-LBD; purchased Invitrogen PV4687
# T2 sequence (P10827 163-410 isoform P10827-2 limits assumed, other chains not shown): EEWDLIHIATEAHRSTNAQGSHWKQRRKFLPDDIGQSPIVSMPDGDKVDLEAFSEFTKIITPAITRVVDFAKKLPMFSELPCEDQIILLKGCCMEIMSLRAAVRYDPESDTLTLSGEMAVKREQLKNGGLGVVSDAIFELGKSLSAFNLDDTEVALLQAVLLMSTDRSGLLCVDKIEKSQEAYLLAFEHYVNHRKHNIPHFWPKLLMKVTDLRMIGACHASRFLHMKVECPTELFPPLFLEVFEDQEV
# Experimental: as §1, §2, §3
Compound,EC50 (TRβ),pharmacokinetic properties (in words) [1],"AUC(0-t) ([1]; po, ig, 5 mg/kg)","Cmax ([1]; po, ig, 5 mg/kg)","Tmax ([1]; po, ig, 5 mg/kg)","half-life ([1]; po, ig, 5 mg/kg)","AUC(0-t) ([1]; iv, 1 mg/kg)","Cmax ([1]; iv, 1 mg/kg)","Tmax ([1]; iv, 1 mg/kg)","half-life ([1]; iv, 1 mg/kg)",EC50 (TRα)
"COC(=O)c1nn(-c2cc(Cl)c(Oc3ccc(=O)n(Cc4ccccc4)c3)c(Cl)c2)c(=O)[nH]c1=O [Example 16, Methyl 2-(4-((1-benzyl-6-oxo-1,6-dihydropyridin-3-yl)oxy)-3,5-dichlorophenyl)-3,5-dioxo-2,3,4,5-tetrahydro-1,2,4-triazine-6-carboxylate]",360 nM,excellent pharmacokinetic properties,33600 ng·h/mL,12700 ng/mL,0.5 h,3.05 h,17400 ng·h/mL,17300 ng/mL,0.083 h,4 h,16300 nM
"O=c1cnn(-c2cc(Cl)c(Oc3ccc(=O)n(Cc4ccccc4)c3)c(Cl)c2)c(=O)[nH]1 [Example 29, 2-(4-((1-benzyl-6-oxo-1,6-dihydropyridin-3-yl)oxy)-3,5-dichlorophenyl)-1,2,4-triazine-3,5-dione]",11 nM,excellent pharmacokinetic properties,115000 ng·h/mL,20000 ng/mL,0.417 h,2.89 h,16900 ng·h/mL,8920 ng/mL,0.083 h,2.38 h,370 nM
"O=c1cnn(-c2cc(Cl)c(Oc3ccc(=O)n(Cc4ccc(F)cc4)c3)c(Cl)c2)c(=O)[nH]1 [Example 36, 2-(3,5-dichloro-4-((1-(4-fluorobenzyl)-6-oxo-1,6-dihydropyridin-3-yl)oxy)phenyl)-1,2,4-triazine-3,5(2H,4H)-dione]",< 4.6 nM,,,,,,,,,,92 nM
"Cc1cc(Oc2c(Cl)cc(-n3nc(C#N)c(=O)[nH]c3=O)cc2Cl)cn(Cc2ccccc2)c1=O [Example 37, 2-(4-((1-benzyl-5-methyl-6-oxo-1,6-dihydropyridin-3-yl)oxy)-3,5-dichlorophenyl)-3,5-dioxo-2,3,4,5-tetrahydro-1,2,4-triazine-6-carbonitrile]",245 nM,,,,,,,,,,> 100000 nM
"N#Cc1nn(-c2cc(Cl)c(Oc3cc(Cl)c(=O)n(Cc4ccccc4)c3)c(Cl)c2)c(=O)[nH]c1=O [Example 38, 2-(4-((1-benzyl-5-chloro-6-oxo-1,6-dihydropyridin-3-yl)oxy)-3,5-dichlorophenyl)-3,5-dioxo-2,3,4,5-tetrahydro-1,2,4-triazine-6-carbonitrile]",382 nM,,,,,,,,,,> 33300 nM
"CC(C)c1cc(Oc2c(Cl)cc(-n3nc(C#N)c(=O)[nH]c3=O)cc2Cl)n[nH]c1=O [MGL3196, reference compound]",,,20700 ng·h/mL,2610 ng/mL,2 h,4.26 h,8840 ng·h/mL,5990 ng/mL,0.083 h,2.74 h,
